Values quoted from earlier work, collected in patent publication US9072314B2, “Carotenoid-containing compositions and methods” (Mead Johnson Nutrition Company, priority 2007, dated 2015).

Key:
H. pylori strains = conditions: strains in Japanese children, cited study

SMILES | H. pylori strains tested that were resistant (H. pylori strains) | antioxidant capacity relative to Vitamin E (versus Vitamin E) | antioxidant capacity relative to beta-carotene (versus beta-carotene)
CC[C@H]1OC(=O)[C@H](C)[C@@H](O[C@H]2C[C@@](C)(OC)[C@@H](O)[C@H](C)O2)[C@H](C)[C@@H](O[C@@H]2O[C@H](C)C[C@H](N(C)C)[C@H]2O)[C@](C)(OC)C[C@@H](C)C(=O)[C@H](C)[C@@H](O)[C@]1(C)O [clarithromycin] | 29% | – | –
CC1=C(/C=C/C(C)=C/C=C/C(C)=C/C=C/C=C(C)/C=C/C=C(C)/C=C/C2=C(C)C(=O)C(O)CC2(C)C)C(C)(C)CC(O)C1=O (stereo not shown) [Astaxanthin, astaxanthin] | – | 100-500 times | 10 times
Cc1ncc([N+](=O)[O-])n1CCO [metronidazole] | 24% | – | –
